Paper PMC8507260, “A2E-induced inflammation and angiogenesis in RPE cells in vitro are modulated by PPAR-α, -β/δ, -γ, and RXR antagonists and by norbixin” (Aging (Albany NY), 2021)
pIC50: −log10 of the molar value. “Also recorded” adds a separate entry of the source. Read-outs that look alike come from different tables or passages of the source.

Columns and labels:
[1] = target: T1, PPAR-β/δ (Homo sapiens, UniProt Q03181); assay: In vitro antagonist assay on PPAR-β/δ; assay type: biochemical
T1 sequence (Q03181 1-441): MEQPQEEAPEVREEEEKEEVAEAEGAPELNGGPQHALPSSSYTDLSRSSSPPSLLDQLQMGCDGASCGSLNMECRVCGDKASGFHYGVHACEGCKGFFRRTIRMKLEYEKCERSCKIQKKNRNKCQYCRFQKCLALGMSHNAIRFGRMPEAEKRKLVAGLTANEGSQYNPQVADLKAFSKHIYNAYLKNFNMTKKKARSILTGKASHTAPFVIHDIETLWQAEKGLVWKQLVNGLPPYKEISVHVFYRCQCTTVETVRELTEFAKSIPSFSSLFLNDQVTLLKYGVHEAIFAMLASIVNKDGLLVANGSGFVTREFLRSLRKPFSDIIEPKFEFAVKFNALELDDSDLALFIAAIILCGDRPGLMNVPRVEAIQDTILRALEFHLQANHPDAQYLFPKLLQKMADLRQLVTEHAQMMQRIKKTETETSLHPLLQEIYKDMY
Description: The binding and activity of norbixin on PPARs remains controversial, thus, firstly, we performed competition experiments in vitro between norbixin and [^3H] GW7647, an agonist of PPAR-α, and [^3H] rosiglitazone, an agonist of PPAR-γ. […] Secondly, we tested whether norbixin could induce the transactivation of PPAR-α, -β/δ or -γ in the context of RPE cells in vitro by co-transfecting porcine RPE cells with a plasmid expressing each of the full-length PPAR isoforms and a plasmid expressing luciferase under the control of the PPAR response element. […] Then, we wanted to determine if norbixin could modulate the transactivation of PPAR isoforms induced by specific agonists.

[2] = target: T2, PPAR-γ (Homo sapiens, UniProt P37231); parameters: Eurofins Cerep (contract laboratory that ran the assay); method as in PMID 19891958; conditions: cited from earlier work
T2 sequence (P37231 1-505): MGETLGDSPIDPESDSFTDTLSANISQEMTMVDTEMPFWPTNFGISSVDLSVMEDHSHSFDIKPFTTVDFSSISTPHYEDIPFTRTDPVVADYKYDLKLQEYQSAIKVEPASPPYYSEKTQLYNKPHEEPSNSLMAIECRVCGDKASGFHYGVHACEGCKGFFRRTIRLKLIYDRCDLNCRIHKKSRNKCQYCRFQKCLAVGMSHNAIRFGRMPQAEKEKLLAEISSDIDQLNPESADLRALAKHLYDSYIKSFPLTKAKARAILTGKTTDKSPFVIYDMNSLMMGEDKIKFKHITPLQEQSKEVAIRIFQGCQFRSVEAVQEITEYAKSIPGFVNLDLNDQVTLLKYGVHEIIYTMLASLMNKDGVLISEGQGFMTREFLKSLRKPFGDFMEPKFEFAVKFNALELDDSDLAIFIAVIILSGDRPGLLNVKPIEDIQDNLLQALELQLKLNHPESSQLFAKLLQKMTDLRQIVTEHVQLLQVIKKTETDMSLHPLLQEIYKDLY

[3] = system: RPE cells; assay: Cell viability of RPE cells in culture without blue light; assay type: cell-based, porcine; conditions: cell culture conditions for cytokine dosage, absence of blue light exposure

SMILES	pIC50 [1]	PPAR-γ transactivation in 3T3-L1 adipocytes ([2]; norbixin at 20 μM)	PPAR-γ transactivation in 3T3-L1 adipocytes ([2]; norbixin at 70 μM)	cell viability [3]
CC(/C=C/C=C(C)/C=C/C(=O)O)=C\C=C\C=C(C)\C=C\C=C(C)\C=C\C(=O)O (stereo in doubt) [norbixin, 9’-cis-norbixin]	5.00	does not induce; also recorded: did not induce	induces a limited transactivation	
CC(C=CC1=C(C)CCCC1(C)C)=CC=CC(C)=Cc1cc(C=CC=C(C)C=CC2=C(C)CCCC2(C)C)cc[n+]1CCO [A2E, N-retinylidene-N-retinylethanolamine]				not diminished
